Assay [1] deals with Bel-7402. Put plainly: Ratio of cisplatin IC50 to compound IC50 for human Bel7402 cells. The format is functional.
Assay [2] concerns BGC-823. Put plainly: Cytotoxicity against human BGC823 after 48 hrs by MTT assay. The format is functional, cell-based. Conditions: BGC-823, 48 h.
The test system of assay [3] is HL-60. Put plainly: Cytotoxicity against human HL60 after 48 hrs by MTT assay. It counts as functional, cell-based. Conditions: HL-60, 48 h. (In general: Formazan colour is commonly taken as a measure of viable cells.)
For assay [4], the system named is Bel-7402. Put plainly: Cytotoxicity against human Bel7402 after 48 hrs by MTT assay. It counts as functional, cell-based. Conditions: Bel-7402, 48 h.
The subject of assay [5] is KB. Put plainly: Cytotoxicity against human KB after 48 hrs by MTT assay. The format is functional, cell-based.

For the compound `CCCCCCCCOc1cc(-c2c(C)nn(-c3ccc([N+](=O)[O-])cc3)c2C)cc(-c2c(C)nn(-c3ccc([N+](=O)[O-])cc3)c2C)c1`, the “Ratio IC50” value in assay [1] is 1.5. Further, the IC50 was determined as 8.4 µM in assay [2], 7.91 µM in assay [3], 5.22 µM in assay [4] and 6.31 µM in assay [5].

`Cc1nn(-c2ccc([N+](=O)[O-])cc2)c(C)c1-c1cccc(-c2c(C)nn(-c3ccc([N+](=O)[O-])cc3)c2C)c1`: the IC50 in assay [2] came out at 11.9 µM; in assay [3], 10.6 µM; in assay [4], 11.8 µM; in assay [5] it was 10.1 µM.

Turning to `O=[N+]([O-])c1ccc(-n2cc(-c3ccncc3)cn2)cc1`, the IC50 in assay [2] was 20.8 µM; in assay [3] it was 17.8 µM; in assay [4], 23.2 µM; in assay [5], 19.2 µM.

Consider `Cc1nn(-c2ccc([N+](=O)[O-])cc2)c(C)c1-c1ccccc1-c1c(C)nn(-c2ccc([N+](=O)[O-])cc2)c1C`, for which the IC50 was determined as 25.4 µM in assay [2], 16.2 µM in assay [3], 19.9 µM in assay [4] and 25.6 µM in assay [5].

For `O=[N+]([O-])c1ccc(-c2cnn(-c3ccc([N+](=O)[O-])cc3)c2)cc1`, the IC50 in assay [2] was determined as 11.9 µM; in assay [3], 8.78 µM; in assay [4] it was 9.48 µM; in assay [5] it was 8.4 µM.

Take `O=[N+]([O-])c1ccc(-n2cc(-c3ccc(C(F)(F)F)cc3)cn2)cc1`: the concentration for half-maximal inhibition (IC50) came out at 13.8 µM in assay [2], 17.3 µM in assay [3], 7.15 µM in assay [4] and 21.3 µM in assay [5].

Consider `O=[N+]([O-])c1ccc(-n2cc(-c3cc(C(F)(F)F)cc(C(F)(F)F)c3)cn2)cc1`, for which the IC50 in assay [2] was 18.5 µM; in assay [3], 11.4 µM; in assay [4] it was 7.39 µM; in assay [5], 12 µM.

As a reminder, the IC50 is the concentration that inhibits the measured activity by half. Higher therefore signals a need for much substance.

The values above are taken from ChEMBL document CHEMBL3044796, “Design, synthesis, and biologic evaluation of some novel N-arylpyrazole derivatives as cytotoxic agents” (Med Chem Res, 2013).
